Where two headings read alike, the source gives them in different places. One block for each compound: values may come before it.
How the values were obtained:
Format in all cases: biochemical
HCPTP-A = target: T1, HCPTP-A (Homo sapiens, UniProt P24666); test: pNPP phosphatase inhibition assay, HCPTP-A
T1 sequence (P24666 1-158): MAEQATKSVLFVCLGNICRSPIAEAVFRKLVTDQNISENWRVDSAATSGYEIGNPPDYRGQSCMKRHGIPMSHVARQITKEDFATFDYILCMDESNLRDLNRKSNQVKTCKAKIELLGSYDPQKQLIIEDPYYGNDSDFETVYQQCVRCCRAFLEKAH

HCPTP-B = target: T2, HCPTP-B (Homo sapiens, UniProt P24666); test: pNPP phosphatase inhibition assay, HCPTP-B; conditions: for inhibition at 100 µM: pH 5, read-out: inhibition of HCPTP-B activity
T2 sequence (P24666 1-158 isoform P24666-2): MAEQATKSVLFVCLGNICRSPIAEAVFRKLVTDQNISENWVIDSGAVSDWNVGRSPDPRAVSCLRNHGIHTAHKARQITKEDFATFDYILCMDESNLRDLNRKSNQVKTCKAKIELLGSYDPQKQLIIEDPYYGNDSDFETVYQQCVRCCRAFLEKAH

HCPTP [1] = target: T3, HCPTP (Homo sapiens, UniProt P24666); test: single concentration screen repeated with 0.01% Triton X-100; conditions: 0.01% Triton X-100 and reducing agents
T3 sequence (P24666 1-158): T1 sequence (P24666 1-158)

HCPTP [2] = target: T4, HCPTP (Homo sapiens, UniProt P24666); test: pNPP single concentration screen, isoform not specified; conditions: pH 5, read-out: elevation of the activity of HCPTP
T4 sequence (P24666 2-158): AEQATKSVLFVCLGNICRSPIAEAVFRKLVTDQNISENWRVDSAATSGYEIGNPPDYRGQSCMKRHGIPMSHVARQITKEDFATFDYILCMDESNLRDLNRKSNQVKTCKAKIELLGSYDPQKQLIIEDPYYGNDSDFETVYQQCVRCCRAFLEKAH

[3] = pH 7, read-out: reduction of the activity of HCPTP-A, 100 μM compound, pH 7
[4] = pH 5, read-out: inhibition of HCPTP-A activity, 100 μM compound, pH 5
[5] = IC50 HCPTP-B, pH 5 (Table I), pNPP substrate, 25 °C
[6] = IC50 HCPTP-A pH 5, pH 5 (Table II)
[7] = IC50 HCPTP-A, pH 5 (Table I), pNPP substrate, 25 °C
[8] = pH 5, read-out: inhibition of HCPTP-A activity
[9] = pH 7, read-out: reduction of the activity of HCPTP-A
[10] = IC50 HCPTP-A pH 5 (dash class), pH 5 (Table II), dash entries
[11] = read-out: IC50 HCPTP-A pH 7, pH 7 (Table II)

inhibition at 100 µM (HCPTP-A; [3]): ≥ 10%
SMILES: N=C(N)NC(=N)Nc1ccc(S(=O)(=O)O)cc1 [Compound 17580]

SMILES: C[C@]12CC[C@@H]3c4ccc(OP(=O)(O)O)cc4CC[C@H]3[C@@H]1CCC2=O [Compound 18320]
inhibition at 100 µM (HCPTP-A; [3]): ≥ 10%

inhibition at 100 µM (HCPTP-B): ≥ 10% | inhibition at 100 µM (HCPTP-A; [4]): ≥ 10% | inhibition at 100 µM (HCPTP-A; [3]): ≥ 10%
SMILES: N=C(Cc1ccccc1)NCC(=O)O [Compound 27895]

SMILES: Cc1ncc(OP(=O)(O)O)c(C)c1O [Compound 29870]
inhibition at 100 µM (HCPTP-B): ≥ 10% | inhibition at 100 µM (HCPTP-A; [4]): ≥ 10%

SMILES: NC(Cc1ccccc1)P(=O)(O)O (stereo not shown) [Compound 30080]
IC50 (HCPTP-B; [5]): 139 µM | inhibition at 100 µM (HCPTP-B): ≥ 10% | IC50 (HCPTP-A; [6]): 223 µM | IC50 (HCPTP-A; IC50 HCPTP-A pH 7 (dash class), pH 7 (Table II), dash entries): > 100 µM | IC50 (HCPTP-A; [7]): 223 µM | inhibition at 100 µM (HCPTP-A; [8]): ≥ 10% | inhibition at 100 µM (HCPTP-A; [9]): ≥ 10%

reduction of the activity of HCPTP-A (HCPTP-A; 100 μM compound, pH 7): at least 10%
SMILES: CCc1ccc(CCC(=O)O)nc1 [Compound 35989]

inhibition at 100 µM (HCPTP-A; [3]): ≥ 10%
SMILES: Cn1c(=O)c2[nH]c(CCC(=O)O)nc2n(C)c1=O [Compound 36534]

IC50 (HCPTP-B; [5]): 3.9 µM | inhibition at 100 µM (HCPTP-B): ≥ 10% | IC50 (HCPTP-A; [6]): 5.5 µM | IC50 (HCPTP-A; [7]): 5.5 µM | inhibition at 100 µM (HCPTP-A; [4]): ≥ 10%
SMILES: O=S(=O)(O)c1ccc2c(/N=N/c3c(O)ccc4ccccc34)cccc2c1 [Compound 45576]
level of inhibition in the presence of detergent (HCPTP [1]): maintained an approximately constant level of inhibition

inhibition at 100 µM (HCPTP-A; [3]): ≥ 10%
SMILES: NC(Cc1c[nH]c2ccc([N+](=O)[O-])cc12)C(=O)O (stereo not shown) [Compound 58612]

activation at 100 µM (HCPTP [2]): ≥ 10% | IC50 (HCPTP-A; [10]): > 100 µM | IC50 (HCPTP-A; [11]): 51 µM
SMILES: NC(Cc1c[nH]c2cc([N+](=O)[O-])ccc12)C(=O)O (stereo not shown) [Compound 65763]

inhibition at 100 µM (HCPTP-B): ≥ 10% | IC50 (HCPTP-A; [10]): > 100 µM | inhibition at 100 µM (HCPTP-A; [4]): ≥ 10% | IC50 (HCPTP-A; [11]): 72 µM
SMILES: O=C(O)/C(Cc1ccnc2ccccc12)=N/O [Compound 85359]

SMILES: CC12CC(=O)C3C(CCC4=CC(=O)CCC43C)C1CC=C2CC(=O)O (stereo not shown) [Compound 86008]
inhibition at 100 µM (HCPTP-A; [3]): ≥ 10%

SMILES: CC1OC(OC2C(O)C(O)C(O)C(O)C2O)C(N)CC1NC(=N)C(=O)O (stereo not shown) [Compound 100858]
inhibition at 100 µM (HCPTP-A; [3]): ≥ 10%

activation at 100 µM (HCPTP [2]): ≥ 10% | inhibition at 100 µM (HCPTP-A; [3]): ≥ 10%
SMILES: CC(=O)Nc1ccc(-c2ccc3[nH]c(=O)cc(C)c3c2)cc1 [Compound 109816]

SMILES: C[C@]12CC[C@@H]3c4ccc(O)cc4CC[C@H]3[C@@H]1C/C(=N\O)[C@@H]2O [Compound 112737]
inhibition at 100 µM (HCPTP-A; [3]): ≥ 10%

SMILES: CC12CCC(=O)C=C1CCC1C2CCC2(C)C(C(=O)Cn3cnc4c(=S)nc[nH]c43)CCC12 (stereo not shown) [Compound 114792]
inhibition at 100 µM (HCPTP-B): ≥ 10% | inhibition at 100 µM (HCPTP-A; [4]): ≥ 10%

SMILES: Nc1nc(N)c(N=Nc2ccc([As](=O)(O)O)c(O)c2)c(N)n1 [Compound 117281]
inhibition at 100 µM (HCPTP-A; [9]): ≥ 10%

IC50 (HCPTP-B; [5]): 4.5 µM | inhibition at 100 µM (HCPTP-B): ≥ 10% | IC50 (HCPTP-A; [6]): 5.5 µM | IC50 (HCPTP-A; [7]): 5.5 µM | inhibition at 100 µM (HCPTP-A; [4]): ≥ 10% | IC50 (HCPTP-A; [11]): 3.6 µM
SMILES: O=C1C2=C(CC=CC2)C(=O)c2c(Nc3ccc(S(=O)(=O)O)cc3)ccc(Nc3ccccc3)c21 [Compound 128437]
level of inhibition in the presence of detergent (HCPTP [1]): maintained an approximately constant level of inhibition

SMILES: CC[C@H]1CN2CCc3cc(OC)c(OC)cc3C2C[C@@H]1C[C@@H]1NCCc2c1[nH]c1ccc(O)cc21 (stereo partly shown) [Compound 131547]
inhibition at 100 µM (HCPTP-A; [9]): ≥ 10%

SMILES: NC(c1ccccc1)P(=O)(O)O (stereo not shown) [Compound 133811]
inhibition at 100 µM (HCPTP-B): ≥ 10% | inhibition at 100 µM (HCPTP-A; [4]): ≥ 10%

inhibition at 100 µM (HCPTP-A; [3]): ≥ 10%
SMILES: Nc1cncc(Nc2ccc(S(N)(=O)=O)cc2)n1 [Compound 135784]

SMILES: O=C(O)CC1NCc2cc3ccccc3nc21 (stereo not shown) [Compound 141566]
inhibition at 100 µM (HCPTP-B): ≥ 10% | IC50 (HCPTP-A; [10]): > 100 µM | IC50 (HCPTP-A; IC50 HCPTP-A pH 7, pH 7 (Table II)): 4.8 µM | inhibition at 100 µM (HCPTP-A; [4]): ≥ 10%

activation at 100 µM (HCPTP [2]): ≥ 10%
SMILES: Oc1cc(O)c2c(c1)OC(c1ccc(O)c(O)c1)C(O)C2c1c(O)cc(O)c2c1OC(c1ccc(O)c(O)c1)C(O)C2 (stereo not shown) [Compound 143099]

inhibition at 100 µM (HCPTP-A; [3]): ≥ 10%
SMILES: CC1CN(CC(N)C(=O)O)C(=O)NC1=O (stereo not shown) [Compound 151831]

SMILES: NC(Cc1cc(Br)c(O)c(Br)c1)C(=O)O (stereo not shown) [Compound 210786]
activation at 100 µM (HCPTP [2]): ≥ 10% | IC50 (HCPTP-A; [10]): > 100 µM | IC50 (HCPTP-A; [11]): 4.6 µM

IC50 (HCPTP-A; [10]): > 100 µM | IC50 (HCPTP-A; [11]): 4 µM
SMILES: O=C(O)C1CSC2(CCN(c3ccccc3)CC2)N1 (stereo not shown) [Compound 319095]
level of inhibition in the presence of detergent (HCPTP [1]): maintained an approximately constant level of inhibition

SMILES: NC1CCCCC1P(=O)(O)O (stereo not shown) [Compound 320308]
inhibition at 100 µM (HCPTP-B): ≥ 10% | inhibition at 100 µM (HCPTP-A; [8]): ≥ 10%

SMILES: C[S+](=N)([O-])CCP(=O)(O)O (stereo not shown) [Compound 359098]
inhibition at 100 µM (HCPTP-A; [9]): ≥ 10%

inhibition at 100 µM (HCPTP-A; [3]): ≥ 10%
SMILES: Nc1nc(-c2ccc3ccccc3c2)cc(-c2cc(-c3ccc4ccccc4c3)nc(N)n2)n1 [Compound 371878]

inhibition at 100 µM (HCPTP-B): ≥ 10% | inhibition at 100 µM (HCPTP-A; [4]): ≥ 10%
SMILES: NC(Cc1ccc2oc3cc(=O)c4ccccc4c-3nc2c1)C(=O)O (stereo not shown) [Compound 643735]

inhibition at 100 µM (HCPTP-A; [3]): ≥ 10%
SMILES: NC(c1c[nH]c2ccccc12)P(=O)(O)O (stereo not shown) [Compound 669581]

IC50 (HCPTP-B; read-out: IC50 HCPTP-B, general phosphatase inhibitor, pH not stated): 61 µM | IC50 (HCPTP-A; read-out: IC50 HCPTP-A, general phosphatase inhibitor, pH not stated): 11 µM
SMILES: [O]=[V]([OH])([OH])[OH] [orthovanadate, reference compound]
